Values of other authors, collected in patent US20030003095A1, “Activated carbon for preventing pregnancy and sexually transmitted disease” (The Procter & Gamble Company, priority 2002, published 2003).

Conditions: stated in words, no test described

Compound | water solubility
N=C(NCCCCCCNC(=N)NC(=N)Nc1ccc(Cl)cc1)NC(=N)Nc1ccc(Cl)cc1.O=C(O)[C@H](O)[C@@H](O)[C@H](O)[C@H](O)CO.O=C(O)[C@H](O)[C@@H](O)[C@H](O)[C@H](O)CO [chlorhexidene digluconate] | water-soluble
Oc1cc(Cl)ccc1Oc1ccc(Cl)cc1Cl [triclosan] | water insoluble
nonoxynol-9 | slightly water soluble
